Results as given in PubChem BioAssay (NCI).
Values joined by “and” are separate entries in the source; they are usually repeats but may differ in a detail not shown here. Equal values may be shown once.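 Grown in 96-well plates, cells were treated for 48 hours with each compound at five concentrations. Insufficient inhibition: endpoint recorded as highest concentration tested. GI50: concentration for 50% inhibition of growth. The concentration for full growth arrest is given as TGI.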

Legend:
Assay in all cases: growth of human tumour cells (NCI), 48 h
SK-OV-3 ovarian = system: SK-OV-3 ovarian
MOLT-4 leukemia = system: MOLT-4 leukemia
NCI-H522 lung = system: NCI-H522 lung
SN12C renal = system: SN12C renal
HL-60(TB) leukemia = system: HL-60(TB) leukemia
HS 578T breast = system: HS 578T breast
HOP-92 NSCLC = system: HOP-92 NSCLC
OVCAR-5 ovarian = system: OVCAR-5 ovarian
A498 renal = system: A498 renal
HT29 colon = system: HT29 colon

Compound	TGI (SK-OV-3 ovarian)	TGI (MOLT-4 leukemia)	TGI (NCI-H522 lung)	TGI (SN12C renal)	TGI (HL-60(TB) leukemia)	TGI (HS 578T breast)	TGI (HOP-92 NSCLC)	TGI (OVCAR-5 ovarian)	TGI (A498 renal)	TGI (HT29 colon)	GI50 (SK-OV-3 ovarian)	GI50 (MOLT-4 leukemia)	GI50 (NCI-H522 lung)	GI50 (SN12C renal)	GI50 (HL-60(TB) leukemia)	GI50 (HS 578T breast)	GI50 (HOP-92 NSCLC)	GI50 (OVCAR-5 ovarian)	GI50 (A498 renal)	GI50 (HT29 colon)
CNC(=O)OCc1c(COC(=O)NC)c(C)n(-c2ccc(Br)cc2)c1C	34.2 µM	> 100 µM	25.9 µM	32.8 µM	31.9 µM	33.5 µM	31 µM	77.2 µM	3.21 µM	22.4 µM										
C=CC(=O)N(C)[C@H]1C[C@H]2OC(C)(C1OC)n1c3ccccc3c3c4c(c5c6ccccc6n2c5c31)C(=O)NC4 (stereo partly drawn)	0.318 µM	0.899 µM	0.565 µM	0.931 µM	1.59 µM	0.6 µM	0.266 µM	> 50 µM	0.182 µM	2.7 µM	0.0955 µM	0.0773 µM	0.0839 µM	0.0521 µM	0.129 µM	0.0887 µM	0.0402 µM	0.106 µM	0.0349 µM	0.178 µM
COc1cccc(C=Nc2cc(C)ccn2)c1O.COc1cccc(C=Nc2cc(C)ccn2)c1O.[Cu]	28.1 µM	73.4 µM	52.3 µM	50.4 µM	14.2 µM	67.6 µM	50.6 µM	44.7 µM	43.4 µM	52.4 µM	13.6 µM	10.9 µM	22.3 µM	19 µM	1.75 µM	19 µM	30.3 µM	20.2 µM	22.8 µM	23.1 µM
COc1ccc(-c2cc(-c3ccccc3)nc(SCCCC(=O)NO)n2)cc1	5.54 µM	10.9 µM	4.32 µM	8 µM	7 µM	9.27 µM	5.42 µM	6.09 µM	2.53 µM	10.9 µM	1.74 µM	0.758 µM	0.808 µM	1.61 µM	1.18 µM	1.66 µM	1.71 µM	0.979 µM	0.816 µM	1.64 µM
CC(C)(C)c1n[nH]c(=S)n(/N=C/c2ccc(F)c(Oc3ccccc3)c2)c1=O	> 100 µM	> 100 µM	> 100 µM	> 100 µM	> 100 µM	85.8 µM	> 100 µM	> 100 µM	69.7 µM	> 100 µM	38.2 µM	39.8 µM	> 100 µM	48.5 µM	61.9 µM	31.4 µM	27.3 µM	54.3 µM	27.8 µM	43.4 µM
CC(C)CC(CC1=CCC2CC1C2(C)C)C1=C(O)C(C)(C)C(=O)C(C)(C)C1=O (stereo not drawn)	0.733 µM	1.6 µM	0.992 µM	> 100 µM	0.423 µM	3.81 µM	0.499 µM	> 100 µM	0.651 µM	11.2 µM	0.256 µM	0.343 µM	0.271 µM	0.324 µM	0.205 µM	0.366 µM	0.191 µM	0.386 µM	0.236 µM	0.383 µM
COC(=O)Cn1c2c(c3c(O)cccc31)C(=O)c1ccccc1-2	> 100 µM	> 100 µM	> 100 µM	> 100 µM	> 100 µM	> 100 µM	> 100 µM	> 100 µM	> 100 µM	> 100 µM	> 100 µM	> 100 µM	> 100 µM	> 100 µM	> 100 µM	> 100 µM	27 µM	> 100 µM	> 100 µM	> 100 µM
O=C(N/N=C/c1ccc2c(c1)CCC2)c1ccccc1O	30 µM	> 100 µM	61.1 µM	62.7 µM	> 100 µM	71 µM	65.3 µM	> 100 µM	36.8 µM	> 100 µM										
N#C/C(=C\c1c(-c2ccccc2)[nH]c2ccccc12)S(=O)(=O)c1ccccc1	> 71.5 µM	> 100 µM	25.5 µM	71.8 µM	5.34 µM	> 26.8 µM	69.8 µM	98.1 µM	> 58.7 µM	> 41.5 µM	6.39 µM	1.68 µM	4.51 µM	5.24 µM	1.27 µM	8.76 µM	8.88 µM	18.2 µM	7.6 µM	0.594 µM
CCCn1c(C)nc2c1C(=O)c1ccccc1C2=O	> 100 µM	> 100 µM	75.1 µM	> 100 µM	45.8 µM	> 100 µM	> 100 µM	> 100 µM	> 100 µM	71.6 µM	86.2 µM	19 µM	18.7 µM	25.5 µM	9.61 µM	17.8 µM	> 100 µM	> 100 µM	34.6 µM	25.8 µM
Nc1ncnc2[nH]ncc12	4.71 µM	> 100 µM	9.48 µM	> 100 µM	2.56 µM	> 100 µM	3.61 µM	> 100 µM	20.4 µM	> 94.5 µM	0.315 µM	2.64 µM	0.649 µM	1.3 µM	0.361 µM	7.32 µM	0.431 µM	0.765 µM	0.853 µM	1.83 µM
COc1ccc(-c2n[nH]nc2-c2cc(OC)c3c(c2OC)OCO3)cc1	9.3 µM	33.1 µM	3.67 µM	83.7 µM	0.975 µM	15 µM	22.6 µM	> 100 µM	6.38 µM	13.7 µM	1.27 µM	0.463 µM	0.486 µM	4.86 µM	0.293 µM	0.958 µM	0.685 µM	4.68 µM	0.312 µM	0.48 µM
O=C(/C(=C/c1ccccc1)CN1CCCCC1)c1ccccc1	7.69 µM	31.8 µM	0.884 µM	4.76 µM	10.2 µM	65.6 µM	6.74 µM	3.98 µM	3.1 µM	1.27 µM	2.75 µM	0.403 µM	0.365 µM	1.67 µM	1.22 µM	5.03 µM	2.68 µM	1.98 µM	1.63 µM	0.518 µM
CCCCNCC(=O)O[C@]1(CC)C(=O)OCc2c1cc1n(c2=O)Cc2cc3ccccc3nc2-1	> 40.5 µM	0.232 µM	4.82 µM	> 16.2 µM	0.314 µM	> 100 µM	12.3 µM	5.95 µM	4.64 µM	> 100 µM										
O=C(c1ccccc1)C(CN1CCOCC1)c1ccccc1 (stereo not drawn)	17.9 µM	6.43 µM	0.995 µM	4.47 µM	5.57 µM	8.37 µM	2.87 µM	5.3 µM	11.2 µM	1.89 µM	5.18 µM	2.24 µM	0.255 µM	1.73 µM	1.95 µM	1.77 µM	1.33 µM	2.65 µM	2.49 µM	0.501 µM
CCN=C1C=CC(=C(c2ccc(N)cc2)c2ccc(N(CC)CC)c(C)c2)C=C1	0.703 µM	5.12 µM	1.62 µM	1.15 µM	0.841 µM	5.1 µM	0.543 µM	2.07 µM	0.931 µM	1.2 µM	0.255 µM	0.394 µM	0.31 µM	0.201 µM	0.304 µM	0.278 µM	0.182 µM	0.317 µM	0.24 µM	0.271 µM
O=S(=O)(NCCNC/C=C/c1ccc(Br)cc1)c1cccc2cnccc12	21.1 µM and 25.1 µM	> 45 µM and 27.7 µM	26.6 µM and 28.3 µM	21 µM and 31.4 µM	> 49.4 µM and 28.1 µM	42 µM and 51.9 µM	9.81 µM and 11.8 µM	27.5 µM and 28 µM	23.8 µM and 25.1 µM	18.9 µM and 28.8 µM	7.26 µM and 11.7 µM	> 20.4 µM and 7.23 µM	12.6 µM and 13.7 µM	7.25 µM and 14.6 µM	> 24.6 µM and 9.48 µM	4.62 µM and 12 µM	1.59 µM and 2.8 µM	13.4 µM and 12.9 µM	8.86 µM and 11.8 µM	5.44 µM and 13.7 µM
CN1CCN(Cc2ccc(NC(=O)c3cncc(C#Cc4cnc(N)c5ccncc45)c3)cc2C(F)(F)F)CC1	> 50 µM	8.68 µM	8.51 µM	> 50 µM	2.89 µM	1.98 µM	1.93 µM	> 50 µM	1.7 µM	6.42 µM	0.687 µM	0.328 µM	0.897 µM	0.837 µM	0.387 µM	0.286 µM	0.306 µM	0.855 µM	0.279 µM	0.212 µM
CN(C)CCCN1c2ccccc2CCc2ccc(Cl)cc21	15.4 µM	11.1 µM	18.1 µM	16.3 µM	13.2 µM	77.1 µM	6.8 µM	16.2 µM	19.4 µM	11.6 µM	4.49 µM	3.07 µM	5.15 µM	3.26 µM	3.63 µM	10.6 µM	1.44 µM	4.07 µM	5.47 µM	3.38 µM
Cc1ccc(C(=O)Nc2ccc(CN3CCN(C)CC3)c(C(F)(F)F)c2)cc1C#Cc1cnc2cccnn12	1.22 µM and 3.74 µM	2.02 µM and 4.45 µM	1.28 µM and 3.26 µM	1.26 µM and 3.45 µM	1.58 µM and 3.88 µM	2.52 µM	0.785 µM and 2.03 µM	1.64 µM and 4.69 µM	1.07 µM and 1.85 µM	1.29 µM and 3.42 µM	0.342 µM and 1.16 µM	0.35 µM and 0.703 µM	0.319 µM and 0.538 µM	0.262 µM and 0.515 µM	0.422 µM and 0.44 µM	0.364 µM and 0.544 µM	0.104 µM and 0.306 µM	0.41 µM and 0.808 µM	0.299 µM and 0.47 µM	0.3 µM and 0.469 µM
O=C1C=C(Br)c2c(-c3ccccc3)oc3cccc1c23	> 100 µM	> 67.8 µM	> 100 µM	> 100 µM	> 63.2 µM	> 100 µM	> 100 µM	> 100 µM	> 100 µM	> 100 µM										
C=CC(=O)Nc1cccc(C)c1Nc1cc(-c2cccnc2Cc2c(C)c(OC)cc(OC)c2C)ncn1	> 100 µM	> 100 µM	36.2 µM	64.9 µM	48.9 µM	68.3 µM	47.3 µM	> 100 µM	9.44 µM	> 100 µM	34.5 µM	3.6 µM	11.6 µM	11.2 µM	5.22 µM	10.6 µM	9.91 µM	27.4 µM	1.93 µM	20.3 µM
Cc1cc(N/N=C/c2nc(-c3ccc(Br)cc3)oc2C)c2cc(Cl)ccc2n1	> 100 µM	> 100 µM	> 100 µM	> 100 µM	> 100 µM	> 100 µM	> 100 µM	> 100 µM	> 100 µM	> 100 µM	> 100 µM	> 100 µM	> 100 µM	> 100 µM	> 100 µM	> 100 µM	> 100 µM	> 100 µM	> 100 µM	> 100 µM
C[C@]12CC[C@H]3[C@@H](CCC4=CC(=O)CC[C@@H]43)[C@@H]1CC[C@@H]2OC(=O)CCc1ccccc1	> 100 µM	49.6 µM	41.7 µM	29.7 µM	35.5 µM	21.8 µM	64.4 µM	> 81.5 µM	30.8 µM	56.5 µM	44.1 µM	17.5 µM	19.4 µM	15.2 µM	2.41 µM	4 µM	20.1 µM	42.8 µM	16.2 µM	18.2 µM
O=C1C(=O)c2c(nc3ccc(Cl)cn23)-c2ccccc21	3.31 µM		2 µM	0.567 µM		0.74 µM	1.98 µM	1.15 µM	3.11 µM	19.8 µM	1.71 µM	0.308 µM	0.668 µM	0.219 µM	0.235 µM	0.239 µM	0.674 µM	0.593 µM	1.64 µM	3.26 µM
